Data as given in the supplement of paper PMC10307832.

Tests used:
Assay in all cases: relative viability (nuclei count vs DMSO), 5 days (fraction); higher = more cells survive
ALW-II-49-7 + Pemetrexed = compound: Cc1ccc(C(=O)Nc2cccc(C(F)(F)F)c2)cc1Nc1cncc(C(N)=O)c1 [ALW-II-49-7] + Nc1nc2[nH]cc(CCc3ccc(C(=O)N[C@@H](CCC(=O)O)C(=O)O)cc3)c2c(=O)[nH]1 [Pemetrexed] (partner 0.2 µM)
Procedure, shortened: (§1)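 Lung cancer cell lines in 1536-well plates were dosed by pin tool the day after seeding, either with one drug alone or with a fixed anchor-drug dose plus five library-drug doses (not always all listed) in √10 steps. After 5 days, cells were fixed and their nuclei stained in one step (final 0.05% Triton X-100, 1% formaldehyde, 1 ug/ml Hoechst), then counted on 4× images. Relative viability is the nuclei count in treated wells divided by that in vehicle wells. Values are medians of duplicate plates.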

Dasatinib + Decitabine = compound: Cc1nc(Nc2ncc(C(=O)Nc3c(C)cccc3Cl)s2)cc(N2CCN(CCO)CC2)n1 [Dasatinib] + Nc1ncn([C@H]2C[C@H](O)[C@@H](CO)O2)c(=O)n1 [Decitabine] (partner 2 µM)
Procedure, shortened: as §1

ALW-II-49-7 + Phenformin = compound: Cc1ccc(C(=O)Nc2cccc(C(F)(F)F)c2)cc1Nc1cncc(C(N)=O)c1 [ALW-II-49-7] + N=C(N)NC(=N)NCCc1ccccc1 [Phenformin] (partner 250 µM)
Procedure, shortened: as §1

ALW-II-49-7 + Trametinib = compound: Cc1ccc(C(=O)Nc2cccc(C(F)(F)F)c2)cc1Nc1cncc(C(N)=O)c1 [ALW-II-49-7] + CC(=O)Nc1cccc(-n2c(=O)n(C3CC3)c(=O)c3c(Nc4ccc(I)cc4F)n(C)c(=O)c(C)c32)c1 [Trametinib] (partner 0.02 µM)
Procedure, shortened: as §1

Cell Line	relative viability (ALW-II-49-7 + Pemetrexed; first compound 0.08 µM)	relative viability (ALW-II-49-7 + Pemetrexed; first compound 0.253 µM)	relative viability (ALW-II-49-7 + Pemetrexed; first compound 0.8 µM)	relative viability (ALW-II-49-7 + Pemetrexed; first compound 2.53 µM)	relative viability (ALW-II-49-7 + Pemetrexed; first compound 8 µM)	relative viability (Dasatinib + Decitabine; first compound 0.005 µM)	relative viability (Dasatinib + Decitabine; first compound 0.01581 µM)	relative viability (Dasatinib + Decitabine; first compound 0.05 µM)	relative viability (Dasatinib + Decitabine; first compound 0.1581 µM)	relative viability (Dasatinib + Decitabine; first compound 0.5 µM)	relative viability (ALW-II-49-7 + Phenformin; first compound 0.08 µM)	relative viability (ALW-II-49-7 + Phenformin; first compound 0.253 µM)	relative viability (ALW-II-49-7 + Phenformin; first compound 0.8 µM)	relative viability (ALW-II-49-7 + Phenformin; first compound 2.53 µM)	relative viability (ALW-II-49-7 + Phenformin; first compound 8 µM)	relative viability (ALW-II-49-7 + Trametinib; first compound 0.08 µM)	relative viability (ALW-II-49-7 + Trametinib; first compound 0.253 µM)	relative viability (ALW-II-49-7 + Trametinib; first compound 0.8 µM)	relative viability (ALW-II-49-7 + Trametinib; first compound 2.53 µM)	relative viability (ALW-II-49-7 + Trametinib; first compound 8 µM)
NCI-H2342	0.681	0.856	0.771	0.791	0.744	0.685	0.598	0.632	0.51	0.321	0.572	0.602	0.635	0.497	0.564	0.709	0.817	0.828	0.69	0.786
NCI-H1944	0.6	0.597	0.611	0.582	0.537	0.439	0.39	0.36	0.272	0.189	0.193	0.231	0.18	0.176	0.138	0.405	0.427	0.418	0.339	0.405
NCI-H2405	1.14	1.12	0.898	1.06	0.791	0.693	0.489	0.45	0.293	0.219	0.389	0.411	0.343	0.351	0.358	0.662	0.699	0.637	0.47	0.467
HCC-15	0.214	0.227	0.228	0.227	0.241	0.609	0.606	0.496	0.428	0.466	0.488	0.433	0.456	0.544	0.399	0.396	0.4	0.399	0.353	0.387
